Tests used:
Experiment in all cases: cells
[1] = tested on: LU-134-A; type: functional, cell-based, Homo sapiens; conditions: Homo sapiens, LU-134-A
Description: SANGER: Inhibition of human LU-134-A cell growth in a cell viability assay.

[2] = tested on: KNS-42; type: functional, cell-based; conditions: Homo sapiens;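 note: growth inhibition of KNS-42 cells, read out with a cell viability assay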
Description: SANGER: Inhibition of human KNS-42 cell growth in a cell viability assay.

[3] = tested on: SF-126; type: functional, cell-based, Homo sapiens; conditions: Homo sapiens, SF-126;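 note: growth inhibition of human SF126 cells, read out with a cell viability assay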
Description: SANGER: Inhibition of human SF126 cell growth in a cell viability assay.

[4] = tested on: SCC-15; type: functional, cell-based, Homo sapiens; conditions: Homo sapiens, SCC-15;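 note: growth inhibition of SCC-15 cells, read out with a cell viability assay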
Description: SANGER: Inhibition of human SCC-15 cell growth in a cell viability assay.

[5] = tested on: SNB-75; type: functional, cell-based, Homo sapiens; conditions: Homo sapiens, SNB-75;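 note: cell viability assay measuring growth inhibition of human SNB-75 cells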
Description: SANGER: Inhibition of human SNB75 cell growth in a cell viability assay.

[6] = tested on: SF-539; type: functional, cell-based, Homo sapiens; conditions: Homo sapiens, SF-539;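 note: Read-out is a cell viability assay, with IC50 reflecting inhibition of cell growth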
Description: SANGER: Inhibition of human SF539 cell growth in a cell viability assay.

[7] = tested on: MZ7-mel; type: functional, cell-based, Homo sapiens; conditions: Homo sapiens, MZ7-mel;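 note: growth inhibition of human MZ7-mel cells, measured by a cell viability assay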
Description: SANGER: Inhibition of human MZ7-mel cell growth in a cell viability assay.

[8] = tested on: KARPAS-299; type: functional, cell-based, Homo sapiens; conditions: Homo sapiens, KARPAS-299
Description: SANGER: Inhibition of human KARPAS-299 cell growth in a cell viability assay.

[9] = tested on: NCI-H1355; type: functional, cell-based, Homo sapiens; conditions: Homo sapiens, NCI-H1355;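 note: growth inhibition of human NCI-H1355 cells, read out by a cell viability assay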
Description: SANGER: Inhibition of human NCI-H1355 cell growth in a cell viability assay.

[10] = tested on: A101D; type: functional, cell-based, Homo sapiens; conditions: Homo sapiens, A101D;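 note: growth inhibition of the cell line, measured with a viability assay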
Description: SANGER: Inhibition of human A101D cell growth in a cell viability assay.

[11] = tested on: LNCaP-Clone-FGC; type: functional, cell-based, Homo sapiens; conditions: Homo sapiens, LNCaP-Clone-FGC
Description: SANGER: Inhibition of human LNCaP-Clone-FGC cell growth in a cell viability assay.

[12] = tested on: KARPAS-45; type: functional, cell-based, Homo sapiens; conditions: Homo sapiens, KARPAS-45;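 note: inhibition of cell line growth, read out through a viability assay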
Description: SANGER: Inhibition of human KARPAS-45 cell growth in a cell viability assay.

[13] = tested on: ETK-1; type: functional, cell-based, Homo sapiens; conditions: Homo sapiens, ETK-1;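 note: growth inhibition of human ETK-1 cells, read out with a cell viability assay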
Description: SANGER: Inhibition of human ETK-1 cell growth in a cell viability assay.

[14] = tested on: BB65-RCC; type: functional, cell-based, Homo sapiens; conditions: Homo sapiens, BB65-RCC;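 note: growth inhibition of the cell line, measured with a cell viability assay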
Description: SANGER: Inhibition of human BB65-RCC cell growth in a cell viability assay.

[15] = tested on: COLO-800; type: functional, cell-based, Homo sapiens; conditions: Homo sapiens, COLO-800;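 note: growth inhibition of COLO-800 cells, read out with a cell viability assay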
Description: SANGER: Inhibition of human COLO-800 cell growth in a cell viability assay.

[16] = tested on: GI-1; type: functional, cell-based, Homo sapiens; conditions: Homo sapiens, GI-1;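 note: growth inhibition of human GI-1 cells, measured with a cell viability readout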
Description: SANGER: Inhibition of human GI-1 cell growth in a cell viability assay.

[17] = tested on: MLMA; type: functional, cell-based, Homo sapiens; conditions: Homo sapiens, MLMA;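 note: growth inhibition of MLMA cells (human), determined through a cell viability readout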
Description: SANGER: Inhibition of human MLMA cell growth in a cell viability assay.

[18] = tested on: HCC2157; type: functional, cell-based, Homo sapiens; conditions: Homo sapiens, HCC2157;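 note: growth inhibition of the cancer cell line, read out as cell viability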
Description: SANGER: Inhibition of human HCC2157 cell growth in a cell viability assay.

[19] = tested on: Ramos-2G6-4C10; type: functional, cell-based, Homo sapiens; conditions: Homo sapiens, Ramos-2G6-4C10;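 note: growth inhibition of the cell line, measured by a cell viability read-out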
Description: SANGER: Inhibition of human Ramos-2G6-4C10 cell growth in a cell viability assay.

[20] = tested on: TE-12; type: functional, cell-based, Homo sapiens; conditions: Homo sapiens, TE-12;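 note: growth inhibition of TE-12 cells, read out by a cell viability assay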
Description: SANGER: Inhibition of human TE-12 cell growth in a cell viability assay.

[21] = tested on: SF-268; type: functional, cell-based, Homo sapiens; conditions: Homo sapiens, SF-268;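 note: growth inhibition of SF-268 cells determined with a cell viability assay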
Description: SANGER: Inhibition of human SF268 cell growth in a cell viability assay.

[22] = tested on: NTERA-2-cl-D1; type: functional, cell-based, Homo sapiens; conditions: Homo sapiens, NTERA-2-cl-D1;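 note: inhibition of cell growth, measured with a cell viability assay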
Description: SANGER: Inhibition of human NTERA-S-cl-D1 cell growth in a cell viability assay.

[23] = tested on: HOP-62; type: functional, cell-based, Homo sapiens; conditions: Homo sapiens, HOP-62;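 note: cell growth inhibition determined with a viability assay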
Description: SANGER: Inhibition of human HOP-62 cell growth in a cell viability assay.

[24] = tested on: MFM-223; type: functional, cell-based, Homo sapiens; conditions: Homo sapiens, MFM-223
Description: SANGER: Inhibition of human MFM-223 cell growth in a cell viability assay.

[25] = tested on: Mo; type: functional, cell-based, Homo sapiens; conditions: Homo sapiens, Mo
Description: SANGER: Inhibition of human Mo-T cell growth in a cell viability assay.

[26] = tested on: ES8; type: functional, cell-based, Homo sapiens; conditions: Homo sapiens, ES8;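 note: growth inhibition of human ES8 cells, read out with a cell viability assay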
Description: SANGER: Inhibition of human ES8 cell growth in a cell viability assay.

[27] = tested on: HH; type: functional, cell-based, Homo sapiens; conditions: Homo sapiens, HH
Description: SANGER: Inhibition of human HH cell growth in a cell viability assay.

[28] = tested on: LS-123; type: functional, cell-based, Homo sapiens; conditions: Homo sapiens, LS-123
Description: SANGER: Inhibition of human LS-123 cell growth in a cell viability assay.

[29] = tested on: KS-1; type: functional, cell-based; conditions: Homo sapiens;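 note: growth inhibition of KS-1 cells, read out with a cell viability assay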
Description: SANGER: Inhibition of human KS-1 cell growth in a cell viability assay.

[30] = tested on: D-263MG; type: functional, cell-based, Homo sapiens; conditions: Homo sapiens, D-263MG
Description: SANGER: Inhibition of human D-263MG cell growth in a cell viability assay.

[31] = tested on: TGW; type: functional, cell-based, Homo sapiens; conditions: Homo sapiens, TGW;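 note: growth inhibition of human TGW cells, read out with a cell viability assay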
Description: SANGER: Inhibition of human TGW cell growth in a cell viability assay.

[32] = tested on: SH-4; type: functional, cell-based; conditions: Homo sapiens;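 note: growth inhibition of SH-4 cells, read out with a cell viability assay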
Description: SANGER: Inhibition of human SH-4 cell growth in a cell viability assay.

[33] = tested on: CGTH-W-1; type: functional, cell-based, Homo sapiens; conditions: Homo sapiens, CGTH-W-1;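 note: growth inhibition of human CGTH-W-1 cells measured by cell viability assay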
Description: SANGER: Inhibition of human CGTH-W-1 cell growth in a cell viability assay.

[34] = tested on: SK-MEL-1; type: functional, cell-based, Homo sapiens; conditions: Homo sapiens, SK-MEL-1;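 note: growth inhibition of human SK-MEL-1 cells, read out by a cell viability assay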
Description: SANGER: Inhibition of human SK-MEL-1 cell growth in a cell viability assay.

[35] = tested on: 8-MG-BA; type: functional, cell-based, Homo sapiens; conditions: Homo sapiens, 8-MG-BA;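 note: growth inhibition of 8-MG-BA cells, read out with a cell viability assay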
Description: SANGER: Inhibition of human 8-MG-BA cell growth in a cell viability assay.

[36] = tested on: LOX IMVI; type: functional, cell-based, Homo sapiens; conditions: Homo sapiens, LOX IMVI
Description: SANGER: Inhibition of human LOXIMVI cell growth in a cell viability assay.

[37] = tested on: MZ1-PC; type: functional, cell-based, Homo sapiens; conditions: Homo sapiens, MZ1-PC;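 note: cell viability assay measuring growth inhibition of human MZ1-PC cells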
Description: SANGER: Inhibition of human MZ1-PC cell growth in a cell viability assay.

[38] = tested on: RPMI-8866; type: functional, cell-based, Homo sapiens; conditions: Homo sapiens, RPMI-8866
Description: SANGER: Inhibition of human RPMI-8866 cell growth in a cell viability assay.

[39] = tested on: GOTO; type: functional, cell-based, Homo sapiens; conditions: Homo sapiens, GOTO;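 note: growth inhibition of GOTO cells, read out by a cell viability assay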
Description: SANGER: Inhibition of human GOTO cell growth in a cell viability assay.

[40] = tested on: C2BBe1; type: functional, cell-based, Homo sapiens; conditions: Homo sapiens, C2BBe1;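 note: growth inhibition of C2BBe1 cells, read out through a viability assay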
Description: SANGER: Inhibition of human C2BBe1 cell growth in a cell viability assay.

[41] = tested on: VA-ES-BJ; type: functional, cell-based, Homo sapiens; conditions: Homo sapiens, VA-ES-BJ;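 note: growth inhibition of the VA-ES-BJ cell line, read out by a cell viability assay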
Description: SANGER: Inhibition of human VA-ES-BJ cell growth in a cell viability assay.

[42] = tested on: ES1; type: functional, cell-based, Homo sapiens; conditions: Homo sapiens, ES1;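 note: growth inhibition of ES1 cells, read out with a cell viability assay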
Description: SANGER: Inhibition of human ES1 cell growth in a cell viability assay.

[43] = tested on: LB2518-MEL; type: functional, cell-based; conditions: Homo sapiens;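 note: growth inhibition of human LB2518-MEL cells, measured with a cell viability assay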
Description: SANGER: Inhibition of human LB2518-MEL cell growth in a cell viability assay.

[44] = tested on: ES6; type: functional, cell-based; conditions: Homo sapiens;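 note: growth inhibition of human ES6 cells, read out with a cell viability assay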
Description: SANGER: Inhibition of human ES6 cell growth in a cell viability assay.

[45] = tested on: DMS-114; type: functional, cell-based, Homo sapiens; conditions: Homo sapiens, DMS-114
[46] = tested on: GB-1; type: functional, cell-based, Homo sapiens; conditions: Homo sapiens, GB-1;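 note: growth of GB-1 cells judged by a viability assay, IC50 marks the concentration inhibiting growth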
Description: SANGER: Inhibition of human GB-1 cell growth in a cell viability assay.

[47] = tested on: NCI-H209; type: functional, cell-based, Homo sapiens; conditions: Homo sapiens, NCI-H209;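 note: growth inhibition of human NCI-H209 cells, measured by a cell viability assay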
Description: SANGER: Inhibition of human NCI-H209 cell growth in a cell viability assay.

CC(C)C[C@H](NC(=O)[C@H](Cc1ccccc1)NC(=O)c1cnccn1)B(O)O [BORTEZOMIB]
IC50 [1]: 7.39 nM
IC50 [2]: 0.258 nM
IC50 [3]: 0.701 nM
IC50 [4]: > 20 nM
IC50 [5]: 0.912 nM
IC50 [6]: > 20 nM
IC50 [7]: 1.09 nM
IC50 [8]: 3.06 nM
IC50 [9]: 0.895 nM
IC50 [10]: 0.225 nM
IC50 [11]: > 20 nM
IC50 [12]: 3.54 nM
IC50 [13]: 2.84 nM
IC50 [14]: 0.304 nM
IC50 [15]: 17.6 nM
IC50 [16]: 0.764 nM
IC50 [17]: 8.85 nM
IC50 [18]: > 20 nM
IC50 [19]: 0.693 nM
IC50 [20]: 4.25 nM
IC50 [21]: 0.923 nM
IC50 [22]: 0.243 nM
IC50 [23]: 0.647 nM
IC50 [24]: 17.9 nM
IC50 [25]: 2.74 nM
IC50 [26]: 0.4 nM
IC50 [27]: 2.13 nM
IC50 [28]: 2.02 nM
IC50 [29]: 0.34 nM
IC50 [30]: 0.807 nM
IC50 [31]: 16.5 nM
IC50 [32]: 0.173 nM
IC50 [33]: 3.1 nM
IC50 [34]: > 20 nM
IC50 [35]: 0.25 nM
IC50 [36]: 3.5 nM
IC50 [37]: 3.54 nM
IC50 [38]: > 20 nM
IC50 [39]: 17.1 nM
IC50 [40]: 2.89 nM
IC50 [41]: 1.09 nM
IC50 [42]: 0.43 nM
IC50 [43]: 0.425 nM
IC50 [44]: < 0.0781 nM
IC50 [45]: 9.62 nM
IC50 [46]: 1.81 nM
IC50 [47]: > 20 nM

— ChEMBL document CHEMBL1201861, “Genomics of Drug Sensitity in Cancer screening data, Wellcome Trust Sanger Institute”
